Laboratory results as given in US20080293038A1, “Method for Determining Resistance of Hiv to Nucleoside Reverse Transcriptase Inhibitor Treatment” (priority 2005, published 2008).
Read-outs that look alike come from different tables or passages of the source.

Test system: HIV-1 isolates from patient plasma samples (recombinant virus with patient PR-RT segment)
Procedure: Phenotypic drug susceptibility is measured as the concentration of drug required to inhibit virus replication by 50% (IC50). As used herein, a “fold change” or “FC” is the ratio of a viral variant IC50 divided by the IC50 of a reference HIV.
The clinical cutoff has been identified as a 3.5-fold change (“FC”) for the PHENOSENSE™ phenotypic HIV assay for FTC.
A set of reverse transcriptase mutations for FTC was generated utilizing the HIPAA-compliant database of over 48,000 linked phenotype and genotype results for patient's samples maintained by ViroLogic, Inc. (South San Francisco, Calif.). Phenotypes and genotypes were determined in the ViroLogic clinical laboratory. […] In this subset excluding the wild-type samples, a total of 13,576 samples had IC50 fold change (FC) data available for FTC.
The drug susceptibility phenotypes of the HIV-1 isolates from patient plasma samples was determined by the PHENOSENSE™ phenotype HIV assay. This assay was performed by amplifying the PR-RT segment of the pol gene from patient plasma and inserting it into a genomic HIV-1 vector. The vector contained a luciferase reporter gene to monitor recombinant virus infection in cell culture. Results were expressed as the FC in the IC50 for the patient-derived virus compared to that for a reference control virus, NL4-3. Drug dilutions were arranged to maximize curve-fitting accuracy for the range of wildtype virus susceptibilities over clinically relevant ranges of increased and decreased susceptibilities. Microtiter plates were incubated in customized incubators in which the temperature, CO2 level, and humidity were controlled to minimize variation in cell growth and medium composition changes throughout the plate.
The five rules were tested separately and with the condition that none of the other rules were verified as true, except for rule 2. […] In this exercise, because of large number of samples in each category, mixtures (if present at accessory positions) were considered as mutant. In rule 2, because of the low number of samples with T69 insertion without NAMs, the condition was defined to select samples with T69 insertion and with no mutation Q151M, K65R, M184I, M184V or M184T.

## Nc1nc(=O)n([C@@H]2CS[C@H](CO)O2)cc1F [FTC, emtricitabine]
Dataset of 13,576 patient samples (wild-type excluded) with FTC FC data, 8,589 samples resistant
  samples classified as phenotypically resistant: 63.2%
Rule 1: samples with RT mutation Q151M only, PR = FC at or above clinical cutoff 3.5 vs NL4-3
  PR % (samples phenotypically resistant to FTC): 53.8%
Rule 2: samples with T69 insertion (possible NAMs), no Q151M, K65R, M184I/V/T, cutoff FC 3.5
  PR % (samples phenotypically resistant to FTC): 89.4%
Rule 3: samples with RT mutation K65R only, cutoff FC 3.5
  PR % (samples phenotypically resistant to FTC): 95.2%
Rule 4: samples with M184I, V or T only, cutoff FC 3.5
  PR % (samples phenotypically resistant to FTC): 100%
Rule 5: samples with 4 or more NAMs (M41L, E44A/D, D67N, K70R, V118I, L210W, T215F/Y, K219E/H/N/Q/R) only, cutoff FC 3.5
  PR % (samples phenotypically resistant to FTC): 87.1%
totals: all 2794 samples meeting only one of the five rules, cutoff FC 3.5
  PR % (samples phenotypically resistant to FTC): 94.9%
